Test results taken from PubChem BioAssay (NCI).
“And” between values parts separate entries of the source, which are not always exact repeats. Equal entries are not always repeated.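 Following 48 hours of exposure in 96-well plates, responses at five concentrations were used to interpolate endpoints linearly. GI50 marks 50% less growth. At the TGI there is no net growth.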

Tests used:
Assay in all cases: NCI tumour cell line growth inhibition, 48 h
SNB-78 CNS = tested on: SNB-78 CNS
XF 498 CNS = tested on: XF 498 CNS
DMS 114 small cell lung = tested on: DMS 114 small cell lung
HOP-18 NSCLC = tested on: HOP-18 NSCLC
DLD-1 colon = tested on: DLD-1 colon
RXF-631 renal = tested on: RXF-631 renal
MCF7 breast = tested on: MCF7 breast
M19-MEL melanoma = tested on: M19-MEL melanoma
MDA-N = tested on: MDA-N
SN12K1 renal = tested on: SN12K1 renal
P388 leukemia = tested on: P388 leukemia
P388/ADR leukemia = tested on: P388/ADR leukemia

With `CC(C)c1cccc(O)c(=O)c1` as the compound, how does the TGI (SNB-78 CNS) read?
The TGI was over 100 µM.

And the TGI (XF 498 CNS)?
Its TGI is over 100 µM.

What about the TGI (DMS 114 small cell lung) of the same compound?
Its TGI is 16 µM.

What about the TGI (HOP-18 NSCLC) of the same compound?
The TGI was over 100 µM.

And the TGI (DLD-1 colon)?
The TGI was over 100 µM.

What about the TGI (RXF-631 renal) of the same compound?
Its TGI is over 100 µM.

And the GI50 (MCF7 breast)?
Its GI50 is 1.46 µg/mL.

And the TGI (MCF7 breast)?
Its TGI is 5.08 µg/mL.

What about the TGI (M19-MEL melanoma) of the same compound?
Its TGI is over 59.3 µM.

How did the TGI (MDA-N) turn out when `CO[C@H]1C[C@](C)(O)Cc2cc3c(c(O)c21)C(=O)c1c(O)cc2c(c1C3=O)O[C@@H]1O[C@@]2(C)[C@H](O)[C@@H](N(C)C)[C@@H]1O` was run?
The TGI was 10.6 µM.

And the GI50 (SNB-78 CNS)?
The GI50 was 5.05 µM.

What about the TGI (SNB-78 CNS) of the same compound?
The TGI was 9.66 µM and 21.8 µM.

And the GI50 (XF 498 CNS)?
Its GI50 is 1.15 µM.

And the TGI (XF 498 CNS)?
The TGI was 2.51 µM and 0.689 µM.

And the TGI (SN12K1 renal)?
Its TGI is 2.15 µM.

And the GI50 (DMS 114 small cell lung)?
The GI50 was 0.533 µM.

What about the TGI (DMS 114 small cell lung) of the same compound?
The TGI was 2.32 µM and 1.71 µM.

And the TGI (P388 leukemia)?
The TGI was 3.3 µM.

And the GI50 (HOP-18 NSCLC)?
Its GI50 is 1.29 µM.

What about the TGI (HOP-18 NSCLC) of the same compound?
Its TGI is 4.3 µM and 8.6 µM.

And the GI50 (DLD-1 colon)?
Its GI50 is 1.67 µM.

And the TGI (DLD-1 colon)?
Its TGI is 4.08 µM and 22.3 µM.

And the TGI (P388/ADR leukemia)?
The TGI was 16.1 µM.

What about the TGI (RXF-631 renal) of the same compound?
Its TGI is 2.71 µM.

And the TGI (MCF7 breast)?
Its TGI is 8.86 µM.

What about the TGI (M19-MEL melanoma) of the same compound?
Its TGI is 2.56 µM and 9.81 µM.

`COc1ccc2c(c1)NC1(O)c3ccccc3C(=O)C21O` (stereo not given) was tested. Which TGI (SNB-78 CNS) did it give?
Its TGI is over 100 µM.

And the TGI (XF 498 CNS)?
The TGI was over 100 µM.

What about the TGI (DMS 114 small cell lung) of the same compound?
The TGI was over 100 µM.

What about the TGI (HOP-18 NSCLC) of the same compound?
The TGI was over 100 µM.

And the TGI (DLD-1 colon)?
Its TGI is over 100 µM.

What about the TGI (RXF-631 renal) of the same compound?
The TGI was over 100 µM.

What about the TGI (M19-MEL melanoma) of the same compound?
Its TGI is over 100 µM.

Which results are given for `CCCCCCCCCCCCCCCCOP(=O)([O-])OCC[N+](C)(C)C`?
TGI (MDA-N): 54.8 µM; TGI (SNB-78 CNS): > 100 µM; TGI (XF 498 CNS): 60.9 µM; TGI (DMS 114 small cell lung): > 100 µM; TGI (P388 leukemia): > 66.3 µM; TGI (HOP-18 NSCLC): > 100 µM; TGI (DLD-1 colon): 62.2 µM; TGI (P388/ADR leukemia): > 86.6 µM; GI50 (MCF7 breast): 3.62 µM; TGI (MCF7 breast): 16 µM and 59.1 µM; TGI (M19-MEL melanoma): 41.3 µM

What does the source list for `CCCCCCCC/C=C1\CCC(CN2CCOCC2)C1=O` (stereo not given)?
TGI (MDA-N): 22.4 µM; TGI (SNB-78 CNS): 31.8 µM; TGI (XF 498 CNS): 27.5 µM; TGI (DMS 114 small cell lung): 20.7 µM; TGI (HOP-18 NSCLC): 25.8 µM; TGI (DLD-1 colon): 8.03 µM; TGI (RXF-631 renal): 64.8 µM; TGI (MCF7 breast): 6.18 µM; TGI (M19-MEL melanoma): 26.3 µM

With `Cc1cccc(C)c1N1C(=O)C(=O)C(c2nc3ccccc3s2)/C(=N/NC(=O)c2ccccc2O)C1=O` (stereo not given) as the compound, how does the TGI (SNB-78 CNS) read?
Its TGI is over 100 µM.

What about the TGI (XF 498 CNS) of the same compound?
Its TGI is over 100 µM.

What about the TGI (DMS 114 small cell lung) of the same compound?
The TGI was 60.9 µM.

And the TGI (HOP-18 NSCLC)?
The TGI was 88.6 µM.

What about the TGI (DLD-1 colon) of the same compound?
The TGI was over 100 µM.

And the TGI (RXF-631 renal)?
Its TGI is over 100 µM.

And the TGI (M19-MEL melanoma)?
The TGI was over 100 µM.
